The values below come from the METLIN SMRT retention time set (Domingo-Almenara et al. 2019).

SMILES strings stand for the structures.

The data set is described as follows: gradient 5% acetonitrile 3 min, to 50% in 2 min, to 85% in 15 min, held 3 min, 100 µL/min. The note with it: column: Zorbax Extend-C18 2.1 x 50 mm; eluents: water / acetonitrile, 0.1% formic acid. A digest of the protocol: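 Data were gathered over 3 months by HPLC coupled to a quadrupole time-of-flight mass spectrometer, operated in positive and negative ionization mode. Mixtures of ~100 pure standards ran on a Zorbax Extend-C18 column (2.1 × 50 mm, 1.8 μm) at 100 μL/min, with water and acetonitrile each containing 0.1% formic acid and dead and dwell volumes of 40 μL and 900 μL. Retention time was read from adduct peaks picked by computer and checked manually.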
Molecule `CCN1CCC(N(Cc2cccs2)C(=O)Nc2cccc(Cl)c2)CC1` returned an RP-LC retention time of 679 s.
In turn, `COc1ccc(-c2cn3c(n2)N(C(=O)Cn2ccnc2)CCC3)cc1` came in with an RP-LC retention time of 593 s.
Under `CC1CCN(CCCNC(=O)c2nnc(-c3ccc(S(=O)(=O)N4CCCC4)cc3)o2)CC1` stands 642 s.
Then `CC(C)N1CCN(Cc2nc(-c3ccc(N4CCOCC4)nc3)no2)CC1`, with 574 s; and `O=C1NCCCCCN(C(=O)CC2CCCCC2)[C@@H]2C[C@@H](C(=O)N3CCc4ccccc4C3)C[C@H]12`, with 933 s.
Then `CCc1ccccc1NC(=O)Cn1c(C)nc2c(sc3nc(-c4ccccc4)ccc32)c1=O`, with 1080 s.
Take `CCOc1ccc(-c2cn3ccn(-c4ccc(C)cc4C)c(=O)c3n2)cc1`: the RP-LC retention time amounted to 921 s.
Under `COc1ccc(S(=O)(=O)Nc2cc(N3CCCS3(=O)=O)ccc2OC)cc1F` stands 721 s; under `CCOc1ccc(NS(=O)(=O)c2cc3c4c(c2)CCC(=O)N4CCC3)cc1`, 818 s; under `O=C(NCc1ccccc1)c1cc2sccc2n1Cc1ccc(F)cc1`, 1080 s.
Then `Cc1nc(-c2ccccc2OC2CN(S(=O)(=O)c3cccc4nsnc34)C2)no1`, with 883 s; and `O=S(=O)(Nc1ccccc1)c1cccnc1Nc1ccc(F)cc1`, with 1020 s.
Then `O=C(Cc1csc(NC(=O)c2ccsc2)n1)Nc1nc2c(s1)CCCC2`, with 874 s.
In turn, `CC(CCc1ccccc1)NC(=O)Cn1nc2c(Oc3ccccc3)nccn2c1=O` (centres undefined) showed an RP-LC retention time of 880 s.
Then `COc1ccccc1N1CCN(C(=O)Cn2ccc3ccc(-c4nnc(C)o4)cc32)CC1`, with 786 s; and `COc1ccccc1CNC(=O)Cn1nc2c(N3CCCCCC3)nccn2c1=O`, with 694 s; and `CCC(=O)NCCc1csc(C2CCCN(C(=O)CC)C2)n1` (centres undefined), with 591 s.
Then `COCc1nc(NCc2cccnc2)ncc1C(=O)O`, with 809 s; and `O=C(Nc1ccc2c(c1)OCO2)C1CC(=O)N(CCc2c[nH]c3ccc(F)cc23)C1` (centres undefined), with 750 s.
Under `Cc1ccc(CN2CCN(CC(=O)Nc3cccc(C(F)(F)F)c3)C(=O)C2=O)cc1` stands 939 s; under `Cc1nn(-c2ccccc2)c(C)c1S(=O)(=O)N1CCC(C(=O)NCc2ccc3c(c2)OCO3)CC1`, 884 s.
For `O=C(Cn1c(=O)c2cccn2c2ccc(F)cc21)NCCc1c[nH]c2ccccc12`, the RP-LC retention time is 834 s.
`Cn1c(=O)c2nc(SCCC(=O)Nc3ccc(Cl)cc3)n(C)c2n(C)c1=O` displayed an RP-LC retention time of 732 s.
Consider `CCn1cc(S(=O)(=O)N2CCc3ccccc3C2)c2cccnc21`, for which the RP-LC retention time worked out at 950 s.
Under `COc1cc(NC(=O)Cn2c(C)cc(-c3nnc(C4CC4)o3)c2C)cc(OC)c1` stands 829 s; under `Cc1cc(C(=O)N[C@@H]2CN(c3ncccn3)C[C@H]2CO)ccn1`, 529 s; under `CCOc1ccc(NC(=O)Cn2c(=O)n(-c3cccc(C)c3)c(=O)c3c2cc(C)n3C)cc1`, 864 s.
Then `CCC[C@@H](NC(=O)N1C(=O)C(CC)(CC)[C@@H]1Oc1ccc(C(=O)N2CCN(C)CC2)cc1)c1ccc2c(c1)OCO2`, with 919 s; and `Cc1ccc(NC(=O)Nc2nc(C(=O)N3CCN(C(=O)c4ccco4)CC3)cs2)cc1`, with 704 s; and `COc1cc([C@H]2c3cc4c(cc3[C@@H](O)[C@H](CO)[C@H]2C(=O)Nc2cnccn2)OCO4)cc(OC)c1OC`, with 626 s.
Under `COc1cc(C)nc(-n2nc(C)cc2OC)n1` stands 711 s.
In turn, `O=C(Cn1nc2ccc(-c3ccc(Cl)cc3)nn2c1=O)N1CCN(c2ccc(F)cc2)CC1` yielded an RP-LC retention time of 876 s.
`CCn1c(C(=O)N2CCC(C(=O)NCc3cccc(OC)c3)CC2)cc2occc21` had an RP-LC retention time of 795 s.
Under `O=C(NC1CC1)C1CCc2sc(C(=O)N3CCCCC3)cc2C1` (centres undefined) stands 711 s.
Then `O=C(CN1CCN(Cc2cccc(Cl)c2)C1=O)NCc1ccncc1`, with 599 s.
Then `COCC(=O)Nc1ccc(-c2nc(-c3ccc(C)cc3C)co2)cc1`, with 1110 s.
Molecule `COC(=O)c1ccc(C2CC(=O)Nc3cc(OC)cc(OC)c32)cc1` (centres undefined) yielded an RP-LC retention time of 784 s.
Then `COc1ccc(N2CCN(C(=O)c3c(C)sc4ccn(C)c(=O)c34)CC2)cc1`, with 661 s.
Under `Cc1ccc(CNC(=O)C2CCN(S(=O)(=O)c3ccc4c(c3)NC(=O)CO4)CC2)o1` stands 715 s; under `CC1=NS(=O)(=O)N(C)C=C1C(=O)OCc1nc(-c2ccc(C)cc2)no1`, 977 s; under `COCCNC(=O)CC1CCN(C(=O)c2[nH]c(C)c(C)c2C)CC1`, 657 s.
Then `COCC(C)(O)CNC(=O)COc1ccccc1OC` (centres undefined), with 608 s; and `CNC(=O)c1cccc(Nc2c(-c3ccc(Cl)cc3)nc3cnccn23)c1`, with 692 s.
`O=C(NCc1ccccc1Br)c1cn2nc(Cl)ccc2n1`: the RP-LC retention time stood at 894 s.
Then `Cc1ccc(NC(=O)C2CCCN(c3ccc(=O)n(-c4cccc(Cl)c4)n3)C2)cc1C` (centres undefined), with 960 s.
Then `Cc1ccc(-n2nnc(C(=O)O)c2-c2ccncc2)cc1`, with 636 s; and `Cc1ccc(C)c(Nc2c(-c3nc(C)no3)cnc3nc(C)ccc23)c1`, with 813 s.
Then `O=C(NCc1c(-c2ccc(Cl)cc2)nc2n1CCS2)c1ccco1`, with 668 s; and `O=c1c2nnc(SCc3ccc(F)cc3)n2ccn1-c1ccc(F)cc1`, with 812 s.
`O=C(CCC1CCCN(C(=O)Nc2ccc(Cl)cc2)C1)NCc1ccccc1Cl` (centres undefined) showed an RP-LC retention time of 939 s.
Then `CCOC(=O)c1[nH]c(C)c(CCC(=O)N2CCC(C(=O)NCc3cccnc3)CC2)c1C`, with 597 s; and `COc1ccc(NS(=O)(=O)c2cc3c(s2)CCN(C(=O)C2CC2)C3)cc1OC`, with 734 s.
Under `O=C(Nc1cccc(F)c1)N1CCC(N2CCN(Cc3ccccc3)C(=O)C2=O)CC1` stands 732 s.
Then `COC(=O)Nc1ccc2c(c1)C(=O)N(C)CCO2`, with 587 s.
For `CN1CCN(C(=O)c2csc(N3CCN(c4ccccc4F)CC3)n2)CC1`, the RP-LC retention time came out at 649 s.
Under `Cc1noc(-c2ccc(NC(=O)c3cccnc3)cc2)n1` stands 824 s.
Then `Cc1ccc(NC(=O)C2CCN(S(=O)(=O)c3ccc4c(c3)sc(=O)n4C(C)C)CC2)nc1`, with 794 s.
Under `O=c1cccnn1CCNS(=O)(=O)c1ccc(F)c(Cl)c1` stands 665 s.
Take `Cc1cc(C(=O)Nc2ccc(C)c(C)c2)n(-c2ccccc2)n1`: the RP-LC retention time came to 961 s.
Then `CCCn1c(C2CCN(S(=O)(=O)c3ccccc3)C2)nc2cccnc21` (centres undefined), with 783 s; and `CCc1ccccc1NC(=O)N1CCCC(C)(C(=O)NCc2ccccc2C)C1` (centres undefined), with 1020 s.
Molecule `COc1cc(Cl)cc2c1OC=CC(C(=O)Nc1ccc(N3CCOCC3)cc1)=C2` came in with an RP-LC retention time of 979 s.
Consider `CN(Cc1ccsc1)C(=O)NC1CCCC1`, for which the RP-LC retention time stood at 792 s.
`COc1ccccc1N1CCN(Cc2nc3nc(C)cc(N4CCOCC4)n3n2)CC1` showed an RP-LC retention time of 602 s.
In turn, `O=C(c1cccnc1)N1CCCn2nc(-c3ccc(Cl)cc3)cc2C1` displayed an RP-LC retention time of 739 s.
Then `O=C(NCc1ccccc1F)c1ccc(Cn2c(C(F)(F)F)nc3cccnc32)cc1`, with 876 s; and `Cn1nccc1-c1cccc(-c2noc(-c3ccccc3F)n2)c1`, with 1070 s; and `Cc1noc(C)c1CC(=O)N1CC[C@@H]2CN(S(C)(=O)=O)[C@@H]2C1`, with 608 s.
Under `O=C(NCC1CCCO1)C1CCN(c2ncccc2-c2nc(-c3ccccc3)no2)CC1` (centres undefined) stands 870 s; under `COCCNc1nc(-c2ccc(C)cc2)nnc1C`, 608 s.
With `Cc1cc(C(=O)NCC(C)C)c2cc(F)ccc2n1`, the RP-LC retention time was 698 s.
Consider `Cc1ccc(CNC(=O)N2CCCC(C)(C(=O)NCc3ccccc3C)C2)cc1` (centres undefined), for which the RP-LC retention time turned out to be 916 s.
Then `COc1cccc(NC(=O)Nc2ccc3nc4n(c(=O)c3c2)CCC4)c1`, with 673 s.
With `CCOC(=O)COc1cc(-c2ccccc2)nc2ccc(NC(=O)COc3ccc(F)cc3)cc12`, the RP-LC retention time worked out at 868 s.
Under `Cn1c(N2CCCC(C(=O)NCc3ccc4c(c3)OCO4)C2)cc(=O)n(C)c1=O` (centres undefined) stands 671 s; under `CCC1Oc2ccc(S(=O)(=O)N3CCC(C(=O)Nc4cccc(C)c4C)CC3)cc2NC1=O` (centres undefined), 837 s.
Then `COc1cc(NC(=O)COc2cc(C)nc(N3CCN(c4ccccc4)CC3)n2)cc(OC)c1OC`, with 764 s; and `O=S(=O)(Cc1ccccc1)N1CCc2nc(-c3ccc(Cl)cc3)ncc2C1`, with 1150 s.
Then `COc1cccc(-c2ccc3nc(N4CCC(C(=O)NC5CC5)CC4)sc3n2)c1`, with 861 s.
